From patent publication US11123355B2, “Antiviral benzyl-amine phosphodiamide compounds” (Merck Sharp & Dohme Corp., priority 2016, dated 2021)
Like-named read-outs stand apart in the source and are kept apart here.

System: HIV-1 (H9/IIB strain)
Test: Multiple Round HIV-1 Infection Assay (Viking Assay) in MT4-GFP cells
Format: cell-based
Settings: inhibition of reproductive ratio R0
Protocol: Assessing antiviral potency in a Multiple Round HIV-1 Infection Assay (Viking Assay) The antiviral activity of the tenofovir prodrugs of the Examples herein was assessed in an assay that measures the rate of replication of HIV in cell culture, termed the Viking assay (VIral KINetics in Green cells) and performed as follows. HIV-1 replication was monitored using MT4-gag-GFP clone D3 (hereafter designated MT4-GFP), which are MT-4 cells modified to harbor a GFP reporter gene, the expression of which is dependent on the HIV-1 expressed proteins tat and rev. Productive infection of an MT4-GFP cell with HIV-1 results in GFP expression approximately 24 h post-infection. MT4-GFP cells were maintained at 37° C./5% CO2/90% relative humidity in RPMI 1640 supplemented with 10/o fetal bovine serum, 100 U/ml penicillin/streptomycin, and 400 μg/ml G418 to maintain the reporter gene. For infections, MT4-GFP cells were placed in the same medium lacking G418 and infected overnight with HIV-1 (H9/IIB strain) virus at an approximate multiplicity of infection of 0.01 in the same incubation conditions. Cells were then washed and re-suspended in either RPMI 1640 supplemented with 10% or 50% normal human serum (NHS) at 1.6×10^5 cells/mL (10% NHS or 50% NHS, respectively). Compound plates were prepared by dispensing compounds dissolved in DMSO into wells of 384 well poly-D-lysine-coated plates (0.2 μl/well) using an ECHO acoustic dispenser. Each compound was tested in a 10-point serial 3-fold dilution (typical final concentrations: 8.4 μM-0.42 nM). Controls included no inhibitor (DMSO only) and a combination of three antiviral agents (efavirenz, indinavir, an in-house integrase strand transfer inhibitor at final concentrations of 4 μM each). Cells were added (50 μL/well) to compound plates and the infected cells were maintained at 37° C./5% CO2/90% relative humidity.
Infected cells were quantified at two time points, ˜48 h and ˜72 h post-infection, by counting the number of green cells in each well using an Acumen eX3 scanner. The increase in the number of green cells over ˜24 h period gives the reproductive ratio, R0, which is typically 5-15 and has been shown experimentally to be in logarithmic phase (data not shown). Inhibition of R0 is calculated for each well, and IC50s determined by non-linear 4-parameter curve fitting.

[1] = MT4-GFP cells infected with HIV-1, 10% normal human serum, read-out: Viking, IC50 (10% NHS)
[2] = MT4-GFP cells infected with HIV-1, 50% normal human serum, read-out: Viking, IC50 (50% NHS)

With `CCCOC(=O)C(C)(C)NP(=O)(CO[C@H](C)Cn1cnc2c(N)ncnc21)N[C@H](c1cccc(OC)c1)C(F)(F)F` (stereo partly drawn) [Example 25B, propyl 2-(((R)-((((R)-1-(6-amino-9H-purin-9-yl)propan-2-yl)oxy)methyl)(((R)-2,2,2-trifluoro-1-(3-methoxyphenyl)ethyl)amino)phosphoryl)a-mino)-2-methylpropanoate and propyl 2-(((S)-((((R)-1-(6-amino-9H-purin-9-yl)propan-2-yl)oxy)methyl)(((R)-2,2,2-trifluoro-1-(3-methoxyphenyl)ethyl)amino)phosphoryl)a-mino)-2-methylpropanoate] as the compound, how does the IC50 [1] read?
Its IC50 is 0.015 µM.

What about the IC50 [2] of the same compound?
The IC50 was 0.097 µM.

With `CCCOC(=O)C(C)(C)N[P@@](=O)(CO[C@H](C)Cn1cnc2c(N)ncnc21)N[C@@H](c1cccc(OC)c1)C(F)(F)F` [Example 28A, propyl 2-(((R)-((((R)-1-(6-amino-9H-purin-9-yl)propan-2-yl)oxy)methyl)(((S)-2,2,2-trifluoro-1-(3-methoxyphenyl)ethyl)amino)phosphoryl)a-mino)-2-methylpropanoate and propyl 2-(((S)-((((R)-1-(6-amino-9H-purin-9-yl)propan-2-yl)oxy)methyl)(((S)-2,2,2-trifluoro-1-(3-methoxyphenyl)ethyl)amino)phosphoryl)a-mino)-2-methylpropanoate] as the compound, how does the IC50 [1] read?
Its IC50 is 0.029 µM.

What about the IC50 [2] of the same compound?
Its IC50 is 0.33 µM.

Which results are given for `CCCOC(=O)C(C)(C)N[P@@](=O)(CO[C@H](C)Cn1cnc2c(N)ncnc21)N[C@@H](c1cccc(OC)c1)C(F)(F)F` [Example 28B, propyl 2-(((R)-((((R)-1-(6-amino-9H-purin-9-yl)propan-2-yl)oxy)methyl)(((S)-2,2,2-trifluoro-1-(3-methoxyphenyl)ethyl)amino)phosphoryl)a-mino)-2-methylpropanoate and propyl 2-(((S)-((((R)-1-(6-amino-9H-purin-9-yl)propan-2-yl)oxy)methyl)(((S)-2,2,2-trifluoro-1-(3-methoxyphenyl)ethyl)amino)phosphoryl)a-mino)-2-methylpropanoate]?
IC50 [1]: 0.017 µM; IC50 [2]: 0.12 µM

What does the source list for `CCCOC(=O)C(C)(C)N[P@@](=O)(CO[C@H](C)Cn1cnc2c(N)ncnc21)N[C@H](C)c1ccc(Cl)cc1C` [Example 29A, propyl 2-(((R)-((((R)-1-(6-amino-9H-purin-9-yl)propan-2-yl)oxy)methyl)(((R)-1-(4-chloro-2-methylphenyl)ethyl)amino)phosphoryl)ami-no)-2-methylpropanoate and propyl 2-(((S)-((((R)-1-(6-amino-9H-purin-9-yl)propan-2-yl)oxy)methyl)(((R)-1-(4-chloro-2-methyphenyl)ethyl)amino)phosphoryl)ami-no)-2-methylpropanoate]?
IC50 [1]: 0.26 µM; IC50 [2]: 2.3 µM

With `CCCOC(=O)C(C)(C)NP(=O)(CO[C@H](C)Cn1cnc2c(N)ncnc21)N[C@@H](C)c1ccc(Cl)cc1C` (stereo partly drawn) [Example 30A, propyl 2-(((R)-((((R)-1-(6-amino-9H-purin-9-yl)propan-2-yl)oxy)methyl)(((S)-1-(4-chloro-2-methylphenyl)ethyl)amino)phosphoryl)ami-no)-2-methylpropanoate and propyl 2-(((S)-((((R)-1-(6-amino-9H-purin-9-yl)propan-2-yl)oxy)methyl)(((S)-1-(4-chloro-2-methylphenyl)ethyl)amino)phosphoryl)ami-no)-2-methylpropanoate] as the compound, how does the IC50 [1] read?
Its IC50 is 0.024 µM.

What about the IC50 [2] of the same compound?
The IC50 was 0.35 µM.

Which IC50 [1] does the source give for `CCCOC(=O)C(C)(C)NP(=O)(CO[C@H](C)Cn1cnc2c(N)ncnc21)N[C@@H](C)c1ccc(Cl)cc1C` (stereo partly drawn) [Example 30B, propyl 2-(((R)-((((R)-1-(6-amino-9H-purin-9-yl)propan-2-yl)oxy)methyl)(((S)-1-(4-chloro-2-methylphenyl)ethyl)amino)phosphoryl)ami-no)-2-methylpropanoate and propyl 2-(((S)-((((R)-1-(6-amino-9H-purin-9-yl)propan-2-yl)oxy)methyl)(((S)-1-(4-chloro-2-methylphenyl)ethyl)amino)phosphoryl)ami-no)-2-methylpropanoate] here?
The IC50 was 0.056 µM.

And the IC50 [2]?
The IC50 was 0.75 µM.
